Assay results published in ChEMBL document CHEMBL4376904, “Bifunctional Pyrimidines as Modulators of Focal Adhesion Kinase” (ACS Med Chem Lett, 2020).

What was measured:
[1] = species on record: Homo sapiens; experiment: Protac activity at E3 Ubiquitin-protein ligase/Focal adhesion kinase in human PC3 cells assessed as induction of FAK protein degradation by immunoblotting analysis relative to control; assay type: cell-based
[2] = cells; conditions: Homo sapiens, PC-3

Compound: Cc1ncsc1-c1ccc(CNC(=O)[C@@H]2C[C@@H](O)CN2C(=O)[C@@H](NC(=O)CCOCCOc2ccc(Nc3ncc(C(F)(F)F)c(NCc4cccc(N(C)S(C)(=O)=O)c4)n3)cc2)C(C)(C)C)cc1
- Emax [1]: 99%
- DC50 [2]: 3.3 nM

Compound: CN(c1cccc(CNc2nc(Nc3ccc(OCCCOCCC(=O)NCCOc4cccc5c4C(=O)N(C4CCC(=O)NC4=O)C5=O)cc3)ncc2C(F)(F)F)c1)S(C)(=O)=O (stereo unspecified)
- Emax [1]: 99%

Compound: Cc1ncsc1-c1ccc(CNC(=O)[C@@H]2C[C@@H](O)CN2C(=O)[C@@H](NC(=O)COCCCOc2ccc(Nc3ncc(C(F)(F)F)c(NCc4cccc(N(C)S(C)(=O)=O)c4)n3)cc2)C(C)(C)C)cc1
- Emax [1]: 99%

Compound: Cc1ncsc1-c1ccc(CNC(=O)[C@@H]2C[C@@H](O)CN2C(=O)[C@@H](NC(=O)CCOCCCOc2ccc(Nc3ncc(C(F)(F)F)c(NCc4cccc(N(C)S(C)(=O)=O)c4)n3)cc2)C(C)(C)C)cc1
- Emax [1]: 99%

Compound: CN(c1cccc(CNc2nc(Nc3ccc(OCCOCCOCCC(=O)NCCOc4cccc5c4C(=O)N(C4CCC(=O)NC4=O)C5=O)cc3)ncc2C(F)(F)F)c1)S(C)(=O)=O (stereo unspecified)
- Emax [1]: 99%
- DC50 [2]: 26.7 nM

Compound: Cc1ncsc1-c1ccc(CNC(=O)[C@@H]2C[C@@H](O)CN2C(=O)[C@@H](NC(=O)CCOCCOCCOc2ccc(Nc3ncc(C(F)(F)F)c(NCc4cccc(N(C)S(C)(=O)=O)c4)n3)cc2)C(C)(C)C)cc1
- Emax [1]: 99%

Compound: CNC(=O)c1ccc(Nc2ncc(C(F)(F)F)c(NCc3nccnc3N(C)S(C)(=O)=O)n2)cc1
- Emax [1]: 0%

Compound: Cc1ncsc1-c1ccc(CNC(=O)[C@@H]2C[C@@H](O)CN2C(=O)[C@@H](NC(=O)COCCOc2ccc(Nc3ncc(C(F)(F)F)c(NCc4cccc(N(C)S(C)(=O)=O)c4)n3)cc2)C(C)(C)C)cc1
- Emax [1]: 99%

Compound: CN(c1cccc(CNc2nc(Nc3ccc(OCCOCCOCCOCCOCCC(=O)NCCOc4cccc5c4C(=O)N(C4CCC(=O)NC4=O)C5=O)cc3)ncc2C(F)(F)F)c1)S(C)(=O)=O (stereo unspecified)
- Emax [1]: 87%
